Laboratory results reported in patent US20250162989A1, “USP30 INHIBITORS AND USES THEREOF” (Vincere Biosciences, Inc., priority 2021, published 2025).

What follows are compounds tested against recombinant USP30 (amino acids 57-517 of the human sequence) (Homo sapiens (Human), UniProt Q70CQ3) (assay: In vitro USP30 biochemical assay (Ubiquitin-Rhodamine substrate)). Settings: 1.5 nM recombinant USP30, 25 nM Ubiquitin-Rhodamine, fluorescence.
Experimental: In vitro biochemical assay to establish the potency of compounds for USP30 inhibition: a 384-well plate assay using a fluorophore tagged substrate of USP30 was used for in vitro screening of compounds. Each compound was tested at
10 different concentrations (0.5 to 10,000 nM) in duplicate wells. […] Data were analyzed using Graph Pad Prism software with a four-parameter (floating slope) fit to log concentration data to determine IC50s.

Sequence of recombinant USP30 (amino acids 57-517 of the human sequence) (Q70CQ3 57-517): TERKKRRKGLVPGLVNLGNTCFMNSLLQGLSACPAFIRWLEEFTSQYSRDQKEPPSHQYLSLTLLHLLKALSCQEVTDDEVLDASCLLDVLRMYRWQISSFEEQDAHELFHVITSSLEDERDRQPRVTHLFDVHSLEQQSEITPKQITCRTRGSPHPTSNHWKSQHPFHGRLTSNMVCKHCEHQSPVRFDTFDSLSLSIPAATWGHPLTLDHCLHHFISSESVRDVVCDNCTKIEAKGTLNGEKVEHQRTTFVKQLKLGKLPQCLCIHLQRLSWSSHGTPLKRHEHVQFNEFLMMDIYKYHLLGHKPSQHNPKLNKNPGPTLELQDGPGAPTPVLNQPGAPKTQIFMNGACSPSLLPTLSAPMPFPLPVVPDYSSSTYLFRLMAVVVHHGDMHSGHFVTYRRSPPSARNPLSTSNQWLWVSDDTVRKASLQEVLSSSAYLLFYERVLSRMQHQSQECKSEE

SMILES	IC50 [µM]
CC(C)(C)NS(=O)(=O)c1ccc(NC(=O)[C@H](Cc2ccccc2)NC(=O)c2cncnc2)cc1 [Compound I-188]	0.05 to 1
CC(C)(CO)NS(=O)(=O)c1ccc(NC(=O)[C@H](CO)NC(=O)c2ccc(F)cc2)cc1 [Compound I-35]	1 to 10
CN(C(=O)c1ccc(F)cc1)[C@@H](Cc1ccccc1)C(=O)Nc1ccc(S(=O)(=O)NCc2ccnn2C)cc1 [Compound I-229]	1 to 10
CC(C)(CN1CCOCC1)NS(=O)(=O)c1ccc(NC(=O)[C@H](CC2CC2)NC(=O)c2ccc(F)cc2)cc1 [Compound I-47]	0.05 to 1
O=C(NC(CC1CCNCC1)C(=O)Nc1ccc(S(=O)(=O)NC2COC2)cc1)c1ccc(F)cc1 (stereo not drawn) [Compound I-120]	0.05 to 1
CC(C)(C)NS(=O)(=O)c1ccc(NC(=O)[C@H](CC2CCN(C(=O)OCc3ccccc3)CC2)NC(=O)c2ccc(F)cc2)cc1 [Compound I-43, benzyl (S)-4-(3-((4-(N-(tert-butyl)sulfamoyl)phenyl)amino)-2-(4-fluorobenzamido)-3-oxopropyl)piperidine-1-carboxylate]	0.05 to 1
COCCC(C)(C)NS(=O)(=O)c1ccc(NC(=O)[C@@H](CC(C)C)NC(=O)c2ccc(F)cc2)cc1 [Compound I-19]	1 to 10
COc1cc(NC(=O)[C@H](Cc2ccccc2)NC(=O)c2ccc(F)cc2)c(Cl)cc1S(=O)(=O)NC1(CO)CC1 [Compound I-139]	1 to 10
COc1cc(NC(=O)[C@@H]2C[C@@H](C3CCCCC3)CN2C(=O)c2ccc(F)cc2)ccc1S(=O)(=O)NC(C)(C)C [Compound I-257]	0.05 to 1
O=C(N[C@@H](CC1CC1)C(=O)Nc1ccc(S(=O)(=O)NC2COC2)cc1)c1ccc(F)cc1 [Compound I-48]	1 to 10
CC(C)(C)NS(=O)(=O)c1ccc(NC(=O)[C@@H]2C[C@@H](C3CCCCC3)CN2C(=O)c2ccc(F)cc2)cn1 [Compound I-260]	0.05 to 1
O=C(N[C@@H](Cc1ccccc1)C(=O)Nc1ccc(S(=O)(=O)NCc2ccncn2)cc1)c1ccc(F)cc1 [Compound I-222]	0.05 to 1
CC(C)(C)NS(=O)(=O)c1ccc(NC(=O)[C@@H]2C[C@H](O)CN2C(=O)c2ccc(F)cc2)cc1 [Compound I-279]	1 to 10
O=C(Nc1ccc(S(=O)(=O)N[C@@H]2CCOC2)nc1)[C@@H]1C[C@@H](c2ccccc2)CN1C(=O)c1ccc(F)cc1 [Compound I-270]	1 to 10
COc1cc(NC(=O)[C@H](CC2CCN(C)CC2)NC(=O)c2ccc(F)cc2)ccc1S(=O)(=O)N[C@@H]1CCOC1 [Compound I-95]	0.05 to 1
CC(C)(C)NS(=O)(=O)N1CCC(NC(=O)[C@H](Cc2ccccc2)NC(=O)c2ccc(F)cc2)CC1 [Compound I-58, (S)—N-(1-((1-(N-(tert-butyl)sulfamoyl)piperidin-4-yl)amino)-1-oxo-3-phenylpropan-2-yl)-4-fluorobenzamide]	1 to 10

SMILES	IC50 [µM]
CN1CCC(C[C@H](NC(=O)c2ccc(F)cc2)C(=O)Nc2ccc(S(=O)(=O)NC(C)(C)CF)cc2)CC1 [Compound I-127]	0.05 to 1
CC(C)(C)NS(=O)(=O)c1ccc(NC(=O)[C@H](CCO)NC(=O)c2ccc(F)cc2)cc1 [Compound I-242]	0.05 to 1
O=C(N[C@@H](CCO)C(=O)Nc1ccc(S(=O)(=O)NC2COC2)cc1)c1ccc(F)cc1 [Compound I-31]	1 to 10
CC(C)(CO)NS(=O)(=O)c1ccc(NC(=O)[C@H](CCO)NC(=O)c2ccc(F)cc2)cc1 [Compound I-29]	1 to 10
COc1cc(NC(=O)[C@H](CC2CCN(C)CC2)NC(=O)c2ccc(F)cc2)ccc1S(=O)(=O)NC1COC1 [Compound I-96]	0.05 to 1
COc1cc(NC(=O)[C@H](CC2CCOCC2)NC(=O)c2ccc(F)cc2)cnc1S(=O)(=O)NC(C)(C)C [Compound I-75]	0.05 to 1
CN1CCC(C[C@H](NC(=O)c2ccc(F)cc2)C(=O)Nc2ccc(S(=O)(=O)NCc3ccnn3C)cc2)CC1 [Compound I-231]	0.05 to 1
CC(C)(C)C[C@H](NC(=O)c1ccc(F)cc1)C(=O)Nc1ccc(S(=O)(=O)NC(C)(C)C)cc1 [Compound I-25]	0.05 to 1
CC(C)(CO)NS(=O)(=O)c1ccc(NC(=O)[C@H](CC2CC2)NC(=O)c2ccc(F)cc2)cc1 [Compound I-46]	0.05 to 1
CC(C)(C)NS(=O)(=O)c1ccc(NC(=O)[C@@H]2C[C@H](c3ccccc3)CN2C(=O)c2ccc(F)cc2)cc1 [Compound I-283]	0.05 to 1
CC(C)(C)NS(=O)(=O)c1ccc(NC(=O)[C@@H]2C[C@@H](C3CCCCC3)CN2C(=O)c2ccc(F)cc2)cc1 [Compound I-253]	0.05 to 1
COc1cc(NC(=O)[C@H](CC2CCN(C)CC2)NC(=O)c2ccc(F)cc2)cnc1S(=O)(=O)NC(C)(C)C [Compound I-80]	0.05 to 1
O=C(N[C@@H](Cc1ccccc1)C(=O)Nc1ccc(S(=O)(=O)NCc2nnc[nH]2)cc1)c1ccc(F)cc1 [Compound I-232]	1 to 10
CC(C)(NS(=O)(=O)c1ccc(NC(=O)[C@H](Cc2ccccn2)NC(=O)c2ccc(F)cc2)cc1)C(F)(F)F [Compound I-212]	0.05 to 1
CO[C@H]1C[C@@H](C(=O)Nc2ccc(S(=O)(=O)NC(C)(C)C)cc2)N(C(=O)c2ccc(F)cc2)C1 [Compound I-290]	1 to 10

Same assay, conditions: […] recombinant USP30, 25 nM Ubiquitin-Rhodamine, fluorescence

SMILES	IC50 [µM]
CC(C)(CCO)NS(=O)(=O)c1ccc(NC(=O)[C@H](CC2CCOCC2)NC(=O)c2ccc(F)cc2)cc1 [Compound I-6]	< 0.05
CO[C@H]1C[C@@H](C(=O)Nc2ccc(S(=O)(=O)NC(C)(C)CO)cc2)N(C(=O)c2ccc(F)cc2)C1 [Compound I-291]	> 10
CC(C)(C)NS(=O)(=O)c1cccc2c(NC(=O)[C@H](Cc3ccccc3)NC(=O)C3CCNCC3)cccc12 [Compound I-187]	> 10
CO[C@H]1C[C@@H](C(=O)Nc2ccc(S(=O)(=O)N[C@@H]3CCOC3)cc2)N(C(=O)c2ccc(F)cc2)C1 [Compound I-288]	> 10
CN1CCC(C[C@H](NC(=O)N2CCN(C)CC2)C(=O)Nc2ccc(S(=O)(=O)NC(C)(C)C)cc2)CC1 [Compound I-218]	> 10
CC(C)(C)NS(=O)(=O)c1ccc(NC(=O)[C@H](CC2CCN(c3ccccc3)CC2)NC(=O)c2ccc(F)cc2)cc1 [Compound I-116]	< 0.05
O=C(Nc1ccc(S(=O)(=O)N[C@@H]2CCOC2)cc1)[C@@H]1C[C@@H](c2ccccc2)CN1C(=O)c1ccc(F)cc1 [Compound I-92]	1 to 10
CC(C)C[C@H](NC(=O)c1ccc(F)cc1)C(=O)Nc1ccc(S(=O)(=O)NC(C)(C)C)nc1 [Compound I-16]	< 0.05
CNS(=O)(=O)N1CCC(NC(=O)[C@H](Cc2ccccc2)NC(=O)c2ccc(F)cc2)CC1 [Compound I-118]	> 10
CC(C)(CO)NS(=O)(=O)c1ccc(NC(=O)[C@@H]2C[C@@H](O)CN2C(=O)c2ccc(F)cc2)cc1 [Compound I-275]	> 10
CC(C)(NS(=O)(=O)c1ccc(NC(=O)[C@H](CC2CCOCC2)NC(=O)c2ccc(F)cc2)cc1)C(F)(F)F [Compound I-126]	< 0.05
CC(C)(C)NS(=O)(=O)c1ccc(NC(=O)C(Cc2ccccc2)c2nnc(-c3ccc(F)cc3)[nH]2)cc1 (stereo not drawn) [Compound I-90]	> 10
CC(C)(C)NS(=O)(=O)c1ccc(NC(=O)C(Cc2ccccc2)c2nnc(-c3ccccc3)[nH]2)cc1 (stereo not drawn) [Compound I-89]	> 10
Cn1cnc(CNS(=O)(=O)c2ccc(NC(=O)[C@H](Cc3ccccc3)NC(=O)c3ccc(F)cc3)cc2)c1 [Compound I-238]	< 0.05
